Consider four molecules from patent US11078205B2, “Selective inhibitors of protein arginine methlytransferase 5 (PRMT5)” (Prelude Therapeutics, Incorporated, priority 2017, dated 2021).

The nature of one data set: FaSSIF solubility. The note with it: 25 °C, thermodynamic from solid.
A further data set deals with sDMA in tumor samples. In words: sDMA levels in Granta-519 xenograft tumor samples by western blot. The format is in vivo, mouse. The note with it: 12 hours after last dosing. As for the experimental part:
Granta-519 cells was maintained in DMEM medium supplemented with 10% fetal bovine serum and 2 mM L-Glutamine at 37° C. in an atmosphere of 5% CO2 in air. Cells in exponential growth phase were harvested and 1×10^7 cells in 0.1 mL of PBS with Matrigel (1:1) were injected subcutaneously at the right lower flank region of each mouse for tumor development. The treatments were started when the mean tumor size reaches approximately 300-400 mm^3. […] Example 47 or vehicle (0.5% Na CMC+0.5% Tween80, suspension) were administered orally (QD for Example 47, QD for vehicle) at a dose of 30 mg/kg and 50 mg/kg for 19 and 16 days, respectively. Body weights and tumor size were measured every 3 to 4 days after randomization. Animals were euthanized 12 hours after last dosing, and blood and tumor samples were collected for analysis.
To measure sDMA levels in tumor samples, tumors from each mouse were weighted and homogenized in RIPA buffer supplemented with protease inhibitor (cOmplete™, EDTA-free Protease Inhibitor Cocktail, Roche). Lysate were centrifuged at 14,000 rpm for 30 min at 4° C. to remove debris. Total protein concentrations of lysate were determined by BCA assay (ThermoFisher Scientific, Catalog #: 23225). Equal amount of total proteins from each tumor were separated on SDS-PAGE gel, and sDMA levels were determined by WB as described previously.

Another data set has as its target PRMT5/MEP50 complex (Homo sapiens (Human), UniProt O14744). In words: Biochemical assay: PRMT5/MEP50 methylation of histone H2A with 3H-SAM, filter plate scintillation. The following applies: histone H2A 5 μM, SAM 1 μM, PRMT5/MEP50 5 nM. The method, then:
Biochemical Assay Protocol
Compounds were solubilized and 3-fold diluted in 100% DMSO. […] Standard reactions were performed in a total volume of 50 μl in assay buffer, with histone H2A (5 μM final) as substrate. To this was added the PRMT5/MEP50 complex diluted to provide a final assay concentration of 5 nM and the compounds were allowed to preincubate for 15 to 20 minutes at room temperature. The reaction was initiated by adding S-[3H-methyl]-adenosyl-L-methionine (PerkinElmer) to final concentration of 1 μM. Following a 60 minutes incubation at 30° C., the reaction was stopped by adding 100 μL of 20% TCA. Each reaction was spotted onto filter plate (Multi Screen FB Filter Plate, Millipore), and washed 5 times with PBS buffer, Scintillation fluid was added to the filter plate and read in a scintillation counter. IC50 values were determined by fitting the data to the standard 4 parameters with Hill Slope using GraphPad Prism software.

Molecules are shown by their SMILES. Values after ≈ are worked out from the molar mass of the structure shown. Bounds are passed on as bounds.

PRMT5/MEP50 complex, sequence (O14744 whole entry): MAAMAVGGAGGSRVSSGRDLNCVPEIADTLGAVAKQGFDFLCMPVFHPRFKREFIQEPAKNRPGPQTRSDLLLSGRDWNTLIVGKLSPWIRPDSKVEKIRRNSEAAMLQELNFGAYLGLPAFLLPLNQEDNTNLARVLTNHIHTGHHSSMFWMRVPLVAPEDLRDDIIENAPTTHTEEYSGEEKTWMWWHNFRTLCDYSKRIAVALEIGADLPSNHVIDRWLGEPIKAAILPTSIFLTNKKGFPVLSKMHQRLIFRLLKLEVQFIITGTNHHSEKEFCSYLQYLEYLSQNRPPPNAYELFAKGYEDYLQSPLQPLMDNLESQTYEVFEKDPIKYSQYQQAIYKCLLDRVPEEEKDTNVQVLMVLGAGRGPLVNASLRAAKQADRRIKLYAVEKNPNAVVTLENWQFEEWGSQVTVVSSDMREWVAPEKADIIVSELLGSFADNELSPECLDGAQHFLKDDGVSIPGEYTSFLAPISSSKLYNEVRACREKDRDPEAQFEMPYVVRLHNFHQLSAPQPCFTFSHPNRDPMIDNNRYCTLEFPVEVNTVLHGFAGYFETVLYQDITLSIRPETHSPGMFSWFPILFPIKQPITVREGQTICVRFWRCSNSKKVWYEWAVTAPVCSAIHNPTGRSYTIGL
PRMT5/MEP50 complex, sequence (Q9BQA1 whole entry partner): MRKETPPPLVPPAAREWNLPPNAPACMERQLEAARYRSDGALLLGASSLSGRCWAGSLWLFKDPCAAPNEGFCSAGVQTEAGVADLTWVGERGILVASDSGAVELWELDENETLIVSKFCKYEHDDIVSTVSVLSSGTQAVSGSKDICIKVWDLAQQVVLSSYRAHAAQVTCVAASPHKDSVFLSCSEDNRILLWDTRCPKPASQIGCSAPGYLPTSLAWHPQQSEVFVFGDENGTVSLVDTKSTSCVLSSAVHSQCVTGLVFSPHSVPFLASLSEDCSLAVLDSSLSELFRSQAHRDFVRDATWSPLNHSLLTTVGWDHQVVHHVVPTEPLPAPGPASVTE

Regarding `CC(=O)CC(c1ccccc1)c1c(O)c2ccccc2oc1=O` (centres unmarked) [Warfarin], in “FaSSIF solubility”, the solubility at 4 h was 10 to 25 µg/mL (≈ 32.4 to 81.1 µM).
In “FaSSIF solubility” (fassif), `O=C1C(O)=C([C@H]2CC[C@H](c3ccc(Cl)cc3)CC2)C(=O)c2ccccc21` [Atovaquone] came in with a solubility at 4 h below 2 µg/mL.
As to `C[C@@]1(O)[C@@H]([C@H](O)c2ccc(Cl)c(Cl)c2)O[C@@H](n2ccc3c(N)ncnc32)[C@@H]1O` [Example 47, (2R,3S,4R,5R)-5-(4-amino-7H-pyrrolo[2,3-d]pyrimidin-7-yl)-2-((R)-(3,4-dichlorophenyl)(hydroxy)methyl)-3-methyltetrahydrofuran-3,4-diol], the “inhibition of sDMA” value with sDMA in tumor samples (30 mg/kg orally QD) is given as above 90%. The “sDMA level in tumor” value in the data set with sDMA in tumor samples (50 mg/kg orally QD) is “no detectable sDMA”.
Take `C[C@@]1(O)[C@@H]([C@@H](O)c2ccc(Cl)c(Cl)c2)O[C@@H](n2ccc3c(N)ncnc32)[C@@H]1O` [Example 66, (2R,3S,4R,5R)-5-(4-amino-7H-pyrrolo[2,3-d]pyrimidin-7-yl)-2-((S)-(3,4-dichlorophenyl)(hydroxy)methyl)-3-methyltetrahydrofuran-3,4-diol]: the half-maximal inhibitory concentration (IC50) against PRMT5/MEP50 complex was determined as 707 nM.
